Where two headings read alike, the source gives them in different places.
What was measured:
[1] = Transdermal fluorescence signal at the chest after injection; type: in vivo, pig
Source text: (§1) Juvenile Yorkshire pigs weighing approximately 25 kg were anesthetized, their body temperature stabilized, and an IV port surgically placed. A region approximately half-way along the line between the hip and knee joint was selected as the injection site and prepared by cleaning the skin and removing any exposed hair by shaving the selected area at least twice. Similarly, the site where two Quantum Leap fluorescent sensors (disclosed in U.S. Pat. No. 10,548,521) were to be positioned (chest) was prepared by washing and shaving. After the skin was dry the sensors were attached with commercially available skin adhesive and background skin auto-fluorescence measurements were recorded. After about 20 minutes of background fluorescence collection the subject animal was dosed either intravenously (animal 48019) or subcutaneously (animals 52771, 53701 09802, or 1539) or intramuscularly (09801) with PBS-1× formulated MB-102 at 3.2 mg/kg. Injection of the appropriate volume took place over about a minute. […] At this point glomerular elimination of MB-102 by the kidneys led to a decrease of fluorescence signal over time. Blood samples (1.5 mL) were taken immediately prior to the introduction of MB-102 (0 minutes) and at 15 minute intervals throughout the procedure. Blood was collected in BD vacutainer K2EDTA tubes, spun to plasma and stored at −80° C. until analyzed. Subsequently, the processed plasma samples were thawed, diluted with PBS-1× and analyzed by HPLC or UPLC and the concentration of MB-102 determined using standard analytical techniques. Further details for each animal are provided in the examples that follow.
(§2) A sterile Mesoderm needle pack was obtained. The needle array featured five (5), 4 mm×30 gauge (0.30 mm dia) luer-hub needles arranged four (4) in a circular, symmetrical pattern (30 mm diameter) about a central needle and were attached via a distribution channel and a second luer-hub to a primary source syringe (3 mL in total deliverable volume). MB-102 API was formulated as 60 mg/mL of sodium salt in 1×PBS and placed in 5 mL serum cap vials. Immediately prior to dosing, the primary syringe was filled with a slight excess of the required amount of formulated MB-102 to achieve 3.2 mg/kg and the needle cap replaced until the subject animal and fluorescence monitor were ready for the experiment to begin and the injection initiated. Subject pig 52771 was dosed with 1.2 mL of MB-102 formulated in PBS-1× (3.2 mg/kg). […] Subject animal fluorescence was obtained during the entire course of the experiment (8 hrs) and blood samples were collected every 15 minutes, processed and stored at −80° C. Comparison of IV MB-102 plasma concentration versus time and subcutaneous MB-102 (both at 3.2 mg/kg dose) plasma concentration versus time are shown in FIG. 1.
(§3) Experimental animal Yorkshire pig, 53701, was subject to subcutaneous (subQ) administration of MB-102 as described in Example 8. […] Plasma sampling was conducted as described in Example 8 and the results (Table 1) are plotted in FIG. 1.
(§4) Experimental animal Yorkshire pig, 09802, was subject to subcutaneous (subQ) administration of MB-102 using a single needle in the same protocol as Example 8 but substituting a 2 mL syringe equipped with a single 4 mm×30 g needle. […] Plasma sampling was conducted as described in Example 8 and the results (Table 1) are plotted in FIG. 1.
Experimental animal Yorkshire pig, 09801, was subject to Intramuscular (IM) administration of MB-102 using substantially the same procedure as Example 8, but substituting a 2 mL syringe equipped with a single 13 mm×27 g needle. […] Blood sampling and processing was as described in Example 8 and the results (Table 1) are plotted in FIG. 6.
Experimental animal Yorkshire pig, 1539, was subject to subcutaneous (subQ) administration of MB-102 using a single needle in the same protocol as Example 10. […]

[2] = MB-102 pig plasma concentration after subcutaneous dosing; type: in vivo; conditions: 3.2 mpk; for concentration at 15 min / concentration at 30 min / concentration at 45 min / concentration at 60 min / concentration at 75 min / concentration at 90 min / concentration at 105 min / concentration at 120 min / concentration at 135 min / concentration at 150 min / concentration at 165 min / concentration at 180 min / concentration at 195 min / concentration at 210 min / concentration at 225 min / concentration at 240 min / concentration at 255 min / concentration at 270 min / concentration at 285 min / concentration at 300 min / concentration at 315 min / concentration at 330 min / concentration at 345 min / concentration at 360 min: Yorkshire, pig, plasma, subcutaneous, 3.2 mg/kg, read-out: MB-102 Pig Plasma Conc.; for SUM (plasma conc. over time): 15-360 min
Source text: as §1, §2, §3, §4

With `Nc1nc(C(=O)N[C@H](CO)C(=O)O)c(N)nc1C(=O)N[C@H](CO)C(=O)O` [MB-102, 3,6-diamino-2,5-bis{N-[(1R)-1-carboxy-2-hydroxyethyl]carbamoyl}pyrazine] the “time until fluorescence signal first observed” value ([1]; pig 1539, single needle subcutaneous) was “after a few minutes”, the “time until fluorescence signal first observed” value ([1]; pig 09801, single needle intramuscular) was “after a few minutes” and the “time until fluorescence signal first observed” value ([1]; pig 09802, single needle subcutaneous) was “after a few minutes”. The “time until transdermal fluorescent signal detectable” value ([1]; pig 52771, multi-needle subcutaneous, 3.2 mg/kg) was “Within a few minutes”, the “time until fluorescence signal first observed” value ([1]; pig 53701, multi-needle subcutaneous) was “after a few minutes” and the “time until fluorescent skin signal at the chest observed” value ([1]; pigs, 3.2 mg/kg IV, subcutaneous or intramuscular, typical) was “within several minutes post injection”. For the same molecule, the concentration at 15 min ([2]; pig 09802, SubQ) was 6670 ng/mL, the concentration at 30 min ([2]; pig 09802, SubQ) was 7530 ng/mL and the concentration at 45 min ([2]; pig 09802, SubQ) was 6850 ng/mL. For the same molecule, the concentration at 60 min ([2]; pig 09802, SubQ) was 6540 ng/mL, the concentration at 75 min ([2]; pig 09802, SubQ) was 5490 ng/mL and the concentration at 90 min ([2]; pig 09802, SubQ) was 5260 ng/mL. It also gave a concentration at 105 min ([2]; pig 09802, SubQ) of 4810 ng/mL, a concentration at 120 min ([2]; pig 09802, SubQ) of 4410 ng/mL and a concentration at 135 min ([2]; pig 09802, SubQ) of 3900 ng/mL. For the same molecule, the concentration at 150 min ([2]; pig 09802, SubQ) was 3710 ng/mL, the concentration at 165 min ([2]; pig 09802, SubQ) was 3500 ng/mL and the concentration at 180 min ([2]; pig 09802, SubQ) was 3070 ng/mL. For the same molecule, the concentration at 195 min ([2]; pig 09802, SubQ) was 2720 ng/mL, the concentration at 210 min ([2]; pig 09802, SubQ) was 2500 ng/mL and the concentration at 225 min ([2]; pig 09802, SubQ) was 2200 ng/mL. The concentration at 240 min ([2]; pig 09802, SubQ) was 1990 ng/mL, the concentration at 255 min ([2]; pig 09802, SubQ) was 1730 ng/mL and the concentration at 270 min ([2]; pig 09802, SubQ) was 1600 ng/mL. For the same molecule, the concentration at 285 min ([2]; pig 09802, SubQ) was 1430 ng/mL, the concentration at 300 min ([2]; pig 09802, SubQ) was 1300 ng/mL and the concentration at 315 min ([2]; pig 09802, SubQ) was 1180 ng/mL. For the same molecule, the concentration at 330 min ([2]; pig 09802, SubQ) was 1030 ng/mL, the concentration at 345 min ([2]; pig 09802, SubQ) was 914 ng/mL and the concentration at 360 min ([2]; pig 09802, SubQ) was 829 ng/mL. For the same molecule, the concentration at 15 min ([2]; pig 52771, SubQ) was 6130 ng/mL, the concentration at 30 min ([2]; pig 52771, SubQ) was 8510 ng/mL and the concentration at 45 min ([2]; pig 52771, SubQ) was 8790 ng/mL. The concentration at 60 min ([2]; pig 52771, SubQ) was 8840 ng/mL, the concentration at 75 min ([2]; pig 52771, SubQ) was 7840 ng/mL and the concentration at 90 min ([2]; pig 52771, SubQ) was 6920 ng/mL. It also gave a concentration at 105 min ([2]; pig 52771, SubQ) of 6070 ng/mL, a concentration at 120 min ([2]; pig 52771, SubQ) of 5560 ng/mL and a concentration at 135 min ([2]; pig 52771, SubQ) of 5000 ng/mL. For the same molecule, the concentration at 150 min ([2]; pig 52771, SubQ) was 4400 ng/mL, the concentration at 165 min ([2]; pig 52771, SubQ) was 3950 ng/mL and the concentration at 180 min ([2]; pig 52771, SubQ) was 3480 ng/mL. The concentration at 195 min ([2]; pig 52771, SubQ) was 3190 ng/mL, the concentration at 210 min ([2]; pig 52771, SubQ) was 2830 ng/mL and the concentration at 225 min ([2]; pig 52771, SubQ) was 2500 ng/mL. The concentration at 240 min ([2]; pig 52771, SubQ) was 2240 ng/mL, the concentration at 255 min ([2]; pig 52771, SubQ) was 2000 ng/mL and the concentration at 270 min ([2]; pig 52771, SubQ) was 1760 ng/mL. The concentration at 285 min ([2]; pig 52771, SubQ) was 1630 ng/mL, the concentration at 330 min ([2]; pig 52771, SubQ) was 1210 ng/mL and the concentration at 345 min ([2]; pig 52771, SubQ) was 1140 ng/mL. For the same molecule, the concentration at 360 min ([2]; pig 52771, SubQ) was 1000 ng/mL, the concentration at 15 min ([2]; pig 53701, SubQ) was 8110 ng/mL and the concentration at 30 min ([2]; pig 53701, SubQ) was 7410 ng/mL. It also gave a concentration at 45 min ([2]; pig 53701, SubQ) of 6620 ng/mL, a concentration at 60 min ([2]; pig 53701, SubQ) of 5940 ng/mL and a concentration at 75 min ([2]; pig 53701, SubQ) of 5260 ng/mL. The concentration at 90 min ([2]; pig 53701, SubQ) was 4720 ng/mL, the concentration at 105 min ([2]; pig 53701, SubQ) was 4230 ng/mL and the concentration at 120 min ([2]; pig 53701, SubQ) was 3670 ng/mL. It also gave a concentration at 135 min ([2]; pig 53701, SubQ) of 3250 ng/mL, a concentration at 150 min ([2]; pig 53701, SubQ) of 3000 ng/mL and a concentration at 165 min ([2]; pig 53701, SubQ) of 2640 ng/mL. The concentration at 180 min ([2]; pig 53701, SubQ) was 2390 ng/mL, the concentration at 195 min ([2]; pig 53701, SubQ) was 2170 ng/mL and the concentration at 210 min ([2]; pig 53701, SubQ) was 1940 ng/mL. For the same molecule, the concentration at 225 min ([2]; pig 53701, SubQ) was 1670 ng/mL, the concentration at 240 min ([2]; pig 53701, SubQ) was 1510 ng/mL and the concentration at 255 min ([2]; pig 53701, SubQ) was 1350 ng/mL. For the same molecule, the concentration at 270 min ([2]; pig 53701, SubQ) was 1220 ng/mL, the concentration at 285 min ([2]; pig 53701, SubQ) was 1090 ng/mL and the concentration at 300 min ([2]; pig 53701, SubQ) was 987 ng/mL. For the same molecule, the concentration at 315 min ([2]; pig 53701, SubQ) was 867 ng/mL, the concentration at 330 min ([2]; pig 53701, SubQ) was 800 ng/mL and the concentration at 345 min ([2]; pig 53701, SubQ) was 704 ng/mL. The concentration at 360 min ([2]; pig 53701, SubQ) was 631 ng/mL, the “SUM (plasma conc. over time)” value ([2]; pig 09802, SubQ) was 1,210,924 ng/mL*min and the “SUM (plasma conc. over time)” value ([2]; pig 52771, SubQ) was 1,413,823 ng/mL*min. The “SUM (plasma conc. over time)” value ([2]; pig 53701, SubQ) was 1,077,956 ng/mL*min.
